Values of other authors, collected in US6362007B1, “Methylated, SMD homologous peptides, reactive with the antibodies from sera of living beings affected with systemic lupus erythematosus” (Innogenetics N.V., priority 1997, dated 2002).

System: antibodies in SmD positive sera
Conditions: James et al. 1994; synthetic octapeptides of SmD1

amino acid 82-90: additional SmD1 epitope in the region of amino acid 82-90 (James et al. 1994) (DVEPKVKSK; UniProt P62314 82-90, looked up, fragment)
SmD positive sera (precipitin positive) reactive: 7 of 9

octapeptides 92-112: SmD1 sequence spanning synthetic octapeptides 92-112 (James et al. 1994) (REAVAGRGRGRGRGRGRGRGR; UniProt P62314 92-112, looked up, fragment)
SmD positive sera (precipitin positive) reactive: 8 of 9
